Like-named read-outs stand apart in the source and are kept apart here. No end group written: not given here.
How the values were obtained:
[1] = system: polymorphonuclear leukocyte adhesion to TNF activated endothelial cells; assay type: cell-based, human; conditions: for Average % Change of PMN Adhesion to TNF Activated ECs: average over PMN donors (# donors in parentheses)
Description: Leukocyte adherence can be measured using several assays known in the art, and the preferred assay is described by Charo, et al., 1985, Blood, 65:473. Briefly, the assay consists of labelling leukocytes with an appropriate label, incubating them with endothelial cells and determining the number of leukocytes that adhere. Preferably the cells are labelled with a gamma ray emitting isotope and the preferred labels are ^111 Indium-oxide or ^51 chromium.
Leukocytes may be isolated from human donors using standard techniques. This generally consists of isolating blood in a physiologically balanced salt solution containing an appropriate anticoagulant, and separating the leukocytes by an appropriate separation step, preferably on Ficoll-Hypaquegradients. Contaminating erythrocytes can be removed by hypotonic lysis. The resulting leukocytes are suspended in a physiologically buffered solution, pH 7.4. The preferred physiological buffered solution is Hank's balanced salt solution that is calcium and magnesium free.
The isolated leukocytes can then be labelled by incubating them for an appropriate time, generally 15 minutes, with the desired radioisotope at a predetermined concentration. The radiolabelled cells are washed to remove unincorporated label, and then suspended in an appropriate solution to perform the adhesion assay described below.
Endothelial cells can be prepared from a number of sources and by several techniques known in the art. Preferably they are obtained from human umbilical veins using the procedure of Charo et al., above. Generally, endothelial cells are isolated by enzymatic digestion of the umbilical veins using, preferably, collagenase as described by Jaffe, E. A., et al., 1973, J. of Clin. Invest, 52:2745. The cells are grown on an appropriate tissue culture substratum, preferably gelatine-coated surfaces.
The endothelial cells may be grown in a variety of tissue culture media containing appropriate supplements such as an appropriate concentration of fetal calf serum, and other supplements/additives routinely utilized by those skilled in this art that are recognized as being favorable for endothelial cells. The endothelial cells may be passaged with a dilute solution of an appropriate protease, and if desired a metal ion chelator. Preferably a solution consisting of 0.05 to 0.25% trypsin and 0.02% EDTA is used. To ensure that the cells are indeed endothelial cells, they are tested by immunofluorescence for Factor VIII antigen, a known endothelial cell marker.
Leukocyte adherence to endothelial cell monolayers may be determined as follows. Early passage endothelial cells, generally not beyond the fifth passage, are cultured on an appropriate substratum and in a suitable cell culture medium. The culture substratum is preferably pre-coated with an appropriate substance that enhances the adherence of the endothelial cells. Several such substances are known including fibronectin, poly-L-lysine, gelatin and laminin. Fibronectin is preferred. An appropriate culture substratum is a 96 well micro titer plate, and a suitable medium is Medium 199 containing fetal calf serum and other supplements known to be beneficial for the growth and maintenance of endothelial cells that are well known to those skilled in the art. Prior to adding a predetermined number of labelled leukocytes, the endothelial cell monolayer is washed with a physiologically balanced salt solution containing a reduced amount of fetal calf serum, preferably 1%. The preferred solution is RPMI supplemented with 1% fetal calf serum.
The endothelial cell monolayer containing added leukocytes is incubated for a time sufficient to permit maximum adherence of the leukocytes, and preferably this is conducted at 37° C. for 30 minutes in an appropriate cell culture atmosphere. Generally this would consist of growing and incubating the cells for the assay period in 5% CO2, 95% air, and 95% humidity. […]

[2] = system: polymorphonuclear leukocyte migration; experiment: Chemotaxis of polymorphonuclear leukocytes (trans-well, zymosan-activated human serum); assay type: cell-based
Description: The materials and methods for ascertaining the chemotactic inhibitory properties of peptides are generally known in the art, and the preferred procedure is described by Capsoni, et al., 1989, J. of Immunol. Meth., 120:125. Generally, chemotaxis is determined by positioning the leukocytes and a chemotactic substance on opposite sides of a membrane in appropriate culture media. The preferred apparatus for doing a chemotaxis assay is produced by Costar Corporation, Cambridge, Mass., and is termed the trans-well cell culture apparatus. […] If a substance is being tested for inhibitory activity this can be achieved by combining it with the leukocytes or the chemotactic substance.
The procedure of Capsoni, et al., above, was followed with the following modifications. Leukocytes may be isolated and labelled with ^111 Indium as described for the adhesion assay, above. The cells are resuspended after labelling in an appropriate cell culture medium at about 5×10^6 cells/ml. Next, a desired amount of the cell suspension is mixed with a predetermined amount of the peptide(s) to be tested for inhibitory activity, and the mixture added to an appropriate filter device. Three μm-pore membranes are situated in the wells of a 24 trans-well tissue culture plate. The cell/inhibitory peptide mixture is incubated for a short time at 37° C. to acclimate the cells to the membrane surface, and to provide sufficient time for them to settle onto the membrane surface. Next, inserts are set in wells containing cell culture media. The media contains zymosan-activated human serum at about 0.5%. Zymosan activation generates complement-derived chemotactic factors which attract the leukocytes through the pores of the membrane. This media was also prewarmed for an appropriate time prior to addition to the cell culture wells. After a 30 minute incubation period at 37° C., the number of leukocytes that have migrated through the membrane filter, in the presence or absence of CD18 peptides, is readily determined by counting the amount of ^111 Indium present in the media. This may be facilitated by adding an appropriate detergent at an appropriate concentration to the media in the wells prior to removing an aliquot for counting. In this way, the inhibitory activities of the peptide being tested could be determined.
Many of the materials and methods used to test the inhibitory activity of the CD18 peptides on the chemotactic response of the polymorphonuclear leukocytes are similar or identical to those used to perform the adhesion assays described in Example 1. Polymorphonuclear leukocytes were isolated and labelled with ^111 Indium as described before, and the cells were suspended in RPMI 1640 culture medium at a concentration of 5×10^6 /ml. Next, 75 μl of the cell suspension and 25 μl of media containing a desired concentration of a CD18 peptide were added to trans-well inserts, and the mixture was incubated at 37° C. for 10 minutes.
To the bottom wells of the 24-well plate 0.6 ml of media containing 0.5% zymosan-activated human serum was added. This solution was also warmed to 37° C. for 10 minutes prior to use.
Next, the assay was conducted by incubating the trans-well inserts containing the cell suspension with the desired CD18 peptide in the 24-well plates at 37° C. for 30 minutes. Subsequently, the inserts were removed, and 60 μl of a 10% sodium dodecyl sulphate solution was added to the wells of the 24-well plate. The plates were incubated with gentle shaking at room temperature for 15 minutes, and 110 μl aliquots were removed and the amount of ^111 Indium determined using a gamma-counter.

| Sequence | Average % Change of PMN Adhesion to TNF Activated ECs ([1]; 10^-4 M) | Average % Change of PMN Adhesion to TNF Activated ECs ([1]; 10^-6 M) | Average % Change of PMN Adhesion to TNF Activated ECs ([1]; 10^-8 M) | percent inhibition (-) or enhancement of polymorphonuclear leukocyte migration ([2]; 10^-4 M, donor 195) | percent inhibition (-) or enhancement of polymorphonuclear leukocyte migration ([2]; 10^-4 M, donor 499) | percent inhibition (-) or enhancement of polymorphonuclear leukocyte migration ([2]; 10^-4 M, donor 591) | percent inhibition (-) or enhancement of polymorphonuclear leukocyte migration ([2]; 10^-4 M, donor 593) | percent inhibition (-) or enhancement of polymorphonuclear leukocyte migration ([2]; 10^-5 M, donor 195) | percent inhibition (-) or enhancement of polymorphonuclear leukocyte migration ([2]; 10^-5 M, donor 499) | percent inhibition (-) or enhancement of polymorphonuclear leukocyte migration ([2]; 10^-5 M, donor 591) | percent inhibition (-) or enhancement of polymorphonuclear leukocyte migration ([2]; 10^-5 M, donor 593) | percent inhibition (-) or enhancement of polymorphonuclear leukocyte migration ([2]; 10^-6 M, donor 195) | percent inhibition (-) or enhancement of polymorphonuclear leukocyte migration ([2]; 10^-6 M, donor 499) | percent inhibition (-) or enhancement of polymorphonuclear leukocyte migration ([2]; 10^-6 M, donor 591) | percent inhibition (-) or enhancement of polymorphonuclear leukocyte migration ([2]; 10^-6 M, donor 593) | concentration of peak inhibitory activity in the PMN adhesion assay [1] | Average % Change of PMN Adhesion to TNF Activated ECs ([1]; 10^-5 M) | Average % Change of PMN Adhesion to TNF Activated ECs ([1]; 10^-7 M) |
| --- | --- | --- | --- | --- | --- | --- | --- | --- | --- | --- | --- | --- | --- | --- | --- | --- | --- | --- |
| RIGFGSFVDKTVLPFVNTHPDKLRN [Peptide 6-25, NH2 --Arg--Ile--Gly--Phe--Gly--Ser--Phe--Val--Asp--Lys--Thr--Val--Leu--Pro--Phe--Val--Asn--Thr--His--Pro--Asp--Lys--Leu--Arg--Asn--COOH] | -13% | +8% | +12% | -4% | -3% | -16% | -51% | 11% | -13% | 49% | 26% | -44% | -8% | 49% | 20% | – | – | – |
| VGKQLISGNLDAPEGGLDAMMQVA [Peptide 5-24, NH2 --Val--Gly--Lys--Gln--Leu--Ile--Ser--Gly--Asn--Leu--Asp--Ala--Pro--Glu--Gly--Gly--Leu--Asp--Ala--Met--Met--Gln--Val--Ala--COOH] | -17% | -13% | -6% | -52% | 0% | 51% | -33% | -56% | -15% | 55% | 12% | -22% | -26% | 52% | -4% | – | – | – |
| YPIDLYYLMDLSYSMLDDLRNVKKLG [Peptide 1-26, NH2 --Tyr--Pro--Ile--Asp--Leu--Tyr--Tyr--Leu--Met--Asp--Leu--Ser--Tyr--Ser--Met--Leu--Asp--Asp--Leu--Arg--Asn--Val--Lys--Lys--Leu--Gly--COOH] | -41% | -6% | +9% | 19% | 8% | -9% | -50% | -41% | -3% | -36% | -19% | -37% | 13% | -39% | -14% | 10^-4 to 10^-5 M | -33% | +24% |

From US5340800A, “Peptide medicaments for the treatment of disease” (priority 1992, dated 1994)
